The record followed here is patent US20250360113A1, “ADMINISTRATION OF DHB TO INCREASE BENEFIT OF LOSING WEIGHT OF INTERMITTENT FASTING” (NANJING NUTRABUILDING BIO-TECH CO., LTD., priority 2023, published 2025).

The assay can be described thus: Serum insulin and leptin by ELISA at end of treatment. The assay is classed as in vivo, C57BL/6 male mice. The note with it: HFD obese mice. The method, then:
50 C57BL/6 male mice aged about 8 weeks, are randomly assigned to five study groups (GA, GB1, GB2, GB3, GB4) of ten mice each (one cage, n=5 per condition). Mice were maintained in a pathogen free condition under a strict 12 h light/dark cycle (0600/1800 h) with 12-15 cycles/hour of air change. Mice were provided with access to respective feed and water ad libitum as per experimental conditions. Mice were housed under controlled laboratory conditions of temperature and humidity at 23±2° C. and 50±10% RH, respectively. Each study group consisted of ten animals, and treatment details of the individual study groups are given below: • Group A (GA, NC): Normal mice, maintained on normal diet (standard chow, 12% calories from fat; 23% calories from protein and 65% calories from carbohydrates) for 8 weeks, receiving neither EODF nor DHB treatment. • Group B1 (GB1): Obese mice, maintained on high fat diet (HFD, 60% calories from fat, 20% calories from protein, 20% calories from carbohydrate) for 8 weeks, receiving neither EODF nor DHB treatment. • Group B2 (GB2): Obese mice, maintained on HFD for 8 weeks, receiving only EODF and no DHB treatment. • Group B3 (GB3): Obese mice, maintained on HFD for 8 weeks, receiving only DHB treatment and no EODF. • Group B4 (GB4): Obese mice, maintained on HFD for 8 weeks, receiving DHB treatment and EODF combination. DHB was administered daily via intragastric injection (i.g.) according to a level of 70 mg/kg body weight. Mice not receiving DHB were given orally with ultrapure water. Serum levels of insulin and leptin were determined at the end of the treatment period by standard ELISA methods. Since one key feature of obesity is the development of insulin and leptin resistance resulting in an elevation of the circulating levels of these two hormones as a consequence of compensatory physiological responses to insulin and leptin insensitivity, thus leptin is one of the major adipocytokines associated with maintaining glucose homeostasis.
For orientation: An ELISA detects its analyte on a solid surface through an enzyme-linked reagent.

The mark [1] stands for this setting: DHB + EODF combination vs EODF only.

As to `COc1ccc2c(c1OC)CN1CCc3cc4c(cc3C1=C2)OCO4` [DHB, Dihydroberberine], the “insulin resistance (serum levels of insulin)” value (DHB 70 mg/kg i.g. daily with or without EODF vs no DHB, FIG. 9) is given as “improved”. Where the note is “DHB 70 mg/kg i.g. daily with or without EODF vs no DHB, FIG. 10”, the “leptin resistance (serum levels of leptin)” value is given as “improved”. In addition, under setting [1], the improving insulin resistance entry is on record as “greater effects” and the improving leptin resistance entry was “greater effects”.
